Measurements as given in patent publication US8569578B1, “Generating transgenic potatoes with novel resistance to potato cyst nematodes by silencing nematode parasitism genes of CLE -1 and CLE-4s” (The United States of America, as represented by the …, priority 2009, dated 2013).
“Also recorded” adds a separate entry of the source.

B1: Gr-CLE-4-D: G. rostochiensis CLE gene of class Gr-CLE-4, cDNA SEQ ID NO: 6 (nucleic acid, listed as Globodera rostochiensis)
DNA: ATCATAATTTCCAAAATCCCAATAAAAGCTTCCTCAATAAAGTAAATATGGCCAAGAACGCAATGCTTTGCCTGCTAATTTTGAGCGTTGTTCTCGCTCTCGCATTTGCTACGAATAAAAAGGATGATGAAGAACCGGAGAACCATTCGACCGGCATTTTTGGAAAGGTCGGACGAGTTGTGACCGTGGCACTTGCGATGTCGTCTCGTCTGGGAGGGGCTAACGCAACCCGAGGAGGTGGAGCTGTATATGGAAGAAACTTGAAATCCAATCAATTGCCAAACAACAATTGGATGGCGCCACCTCCTCCAATGGCAATGAGAAGTGCCAAAGTCTATGATTCGAAACATTCTCCTGCTGAATATCTTAAAAAATTTGCTCAAGACTTTCGCCGAAAAACCGGCACGCACTCCCAGCGGCATCACGAAGAAACAACACTGGAACAGGAGAAGCGTGGAGCGCCAGCTGGGCCCGACCCAATACATCACCAAGATACAACATTTGAACAGGAGAAGCGTGGAGCGCCAGCTGGGCCCGACCCAATACATCACCAAGATACAACACTGGAACAGGAGAAGCGTGTAGCGGGAGCTGGGCCCGACCCAATACATCACCAAGATACAAAATTTGAACAGGAGAAGCGTGGAGCGCCAGCTGGGCCCGACCCAATACATCACTGATGCTCTTATTCACAATGCTAAAATATTTTAGACTATAGATAAATTGCTAGCAACAGATAAATGCCTATTCAT

What was measured:
Type in all cases: in vivo
[1] = test system: Arabidopsis (Columbia-0) roots; assay: in vitro root assay with synthetic CLE peptides on Arabidopsis roots; settings: 10 μM peptide in assay medium, compared with no peptide or Ag-16p
Text: (§1) Mounting evidence supports that the conserved CLE motif represents the major functional domain of plant CLE proteins. Gr-CLE genes encode four different 12-aa CLE motifs (FIG. 1A). To examine the functional sufficiency of these nematode CLE motifs, we conducted in vitro root assays (Fiers et al. 2005) using synthetic dodecapeptides (GrCLE1-1-12p, GrCLE4-1-12p, GrCLE4-2-12p, and GrCLE4-3-12p) corresponding to the four CLE motifs of Gr-CLE proteins. A 16-aa peptide (Ag-16p) (Fiers et al. 2005) corresponding to the C-terminus of AGAMOUS that has no similarity with plant CLE motifs and a 12-aa CLV3 peptide (CLV3-12p) were used as negative and positive controls, respectively. In addition, several peptides, including a mutated GrCLE1-1 dodecapeptide (GrCLE1-1m-12p, with a Gly-to-Ala conversion as in clv3-1 and clv3-5 mutants), a 14-aa GrCLE1-1 peptide (GrCLE1-1-14p, with one additional N-terminal and one additional C-terminal residue compared to Gr-CLE1-1-12p), and three 13-aa peptides of GrCLE4-1-13p, GrCLE4-2-13p, and GrCLE4-3-13p (all contained an extra N-terminal lysine residue compared to the corresponding dodecapeptides), were synthesized and used in the in vitro root assays.
(§2) Peptides with a purity of >70% were synthesized (Sigma-Aldrich Corp., St. Louis, Mo., U.S.A) and dissolved in filter-sterilized 50 mM sodium phosphate buffer. Three Gr-CLE-1 related peptides were synthesized: GrCLE1-1-12p (12 aa, RVIPGGPDPLHN; SEQ ID NO: 12), GrCLE1-1m-12p (12 aa, RVIPGAPDPLHN; SEQ ID NO: 13, with a G-to-A conversion at position 6), and GrCLE1-1-14p (14 aa, KRVIPGGPDPLHNR; SEQ ID NO: 14). Six Gr-CLE-4 related peptides were synthesized: GrCLE4-1-12p (12 aa, RVAGAGPDPIHH; SEQ ID NO: 15), GrCLE4-1-13p (13 aa, KRVAGAGPDPIHH; SEQ ID NO: 16), GrCLE4-2-12p (12 aa, RAVPAGPDPKHH; SEQ ID NO: 17), GrCLE4-2-13p (13 aa, KRAVPAGPDPKHH; SEQ ID NO: 18), GrCLE4-3-12p (12 aa, RGAPAGPDP IHH; SEQ ID NO: 19), and GrCLE4-3-13p (13 aa, KRGAPAGPDPIHH; SEQ ID NO: 20). Positive and negative control peptides included CLV3-12p (12 aa, RTVPSGPDPLHH; SEQ ID NO: 21) and Ag-16p (16 aa, APNNHHYSSAGRQDQT; SEQ ID NO: 22) (Fiers et al., 2005).
(§3) For peptide treatments, seeds of wild-type Arabidopsis (Columbia-0) and potato, nonhost and host of G. rostochiensis, respectively, were surface-sterilized and plated on square plates (8-12 seeds per plate) containing the assay medium (Fiers et al. 2005, supra) with 10 μM of each peptide. Assay plates were placed vertically in a growth chamber and cultured at 23° C. for 16 h of light and 8 h of dark. The root length was measured from the base of the hypocotyl to the tip of the primary root at several time points after plating. Two independent experiments were conducted.

potato roots = assay: in vitro root assay with synthetic CLE peptides on potato roots; settings: 10 μM peptide in assay medium, compared with no peptide or Ag-16p
Text: as §1, §2, §3

potato hairy roots = assay: overexpression of Gr-CLE genes in potato hairy roots; settings: measured at 4, 6, 8 and 10 days after dissecting; compared with vector control
Text: To examine root meristems, primary root tips were excised from peptide treated Arabidopsis seedlings or from transgenic potato hairy roots and immediately mounted in water onto a glass slide. Roots were examined under an Olympus BX-50 microscope equipped with Nomarski optics and images were captured using a QImaging Retiga EXi digital CCD camera (QImaging, Surrey, BC, Canada). The root apical meristem (RAM) regions of individual primary roots that covered the distance from the position around the quiescent center to the position where elongated root cells immediately follow cytoplasm-dense meristematic cells were measured microscopically. The collected data were analyzed using the MetaMorph imaging analysis software (Universal Imaging Corporation, Downingtown, Pa., U.S.A.)
A. rhizogenes strain 15834 was transformed with individual transgene constructs of interest and used for the generation of potato hairy roots as described previously (Wang et al. 2007. Mol. Plant Pathol. 8:423-436) with some modifications. Potato stem pieces from tissue cultures were incubated with the transformed A. rhizogenes cell suspension for 10 mins, then transferred onto the callus induction medium containing 1×MS salts (Sigma-Aldrich), 26.7 μM Glycine, 4 μM Nicotinic Acid, 2.4 μM Pyridoxine HCL (Sigma-Aldrich), 1.2 μM Thiamine HCL (Sigma-Aldrich), 0.5 μM Folic Acid, 0.2 μM d-biotin (Sigma-Aldrich), 0.01% Myo-inositol (Acros, Morris Plains, N.J., U.S.A.), 3% sucrose, 0.001% 6-BAP (Sigma-Aldrich), 0.002% NAA (Sigma-Aldrich), and 1% agar and cultivated for four days at 24° C. without light. The infected stem pieces were then cultured on the propagation medium containing 1×MS salts, 1.2 mM NaH2PO4, 0.01% Myo-inositol, 0.1% Thiamine HCl, 3% sucrose, 1% agar, 50 μg/mL of kanamycin, and 238 μg/mL of timentin (GlaxoSmithKline). Timentin was used to inhibit the growth of A. rhizogenes 15834 and kanamycin was added to select for transformed roots. Approximately 12-15 days after root emergence, 1 cm-long root tips were dissected and cultured on vertical plates containing the propagation medium with 119 μg/mL of timentin and the root growth rate was measured at different time points.

Row | Molecule | suppression of root growth (length of main root) [1] | suppression of root growth (length of main root) (potato roots) | suppression of root growth (length of main root) ([1]; listed as Gr-CLE4-2-12p) | suppression of root growth (length of main root) (potato roots; listed as Gr-CLE4-2-12p) | length of primary roots of transgenic potato hairy root lines (potato hairy roots)
1 | KRGAPAGPDPIHH (LRGAPAGPDPIHH; listed as Globodera rostochiensis) [GrCLE4-3-13p, 13 aa peptide with extra N-terminal lysine] | did not show activities on root suppression | did not show activities on root suppression | – | – | –
2 | RAVPAGPDPKHH (RAVPAGPDPLHH; listed as Globodera rostochiensis) [GrCLE4-2-12p, 12 aa Gr-CLE-4 related peptide] | significantly shorter | significantly shorter | suppressed root growth | suppressed root growth | –
3 | RVAGAGPDPIHH (listed as Globodera rostochiensis) [GrCLE4-1-12p, 12 aa Gr-CLE-4 related peptide] | suppressed root growth; also recorded: significantly shorter | suppressed root growth; also recorded: significantly shorter | – | – | –
4 | KRVIPGGPDPLHNR (listed as Globodera rostochiensis) [GrCLE1-1-14p, 14 aa GrCLE1-1 peptide withone additional N-terminal and C-terminal residue] | significantly shorter; also recorded: comparable level of root suppression activity as GrCLE1-1-12p | significantly shorter | – | – | –
5 | RVIPGAPDPLHN (listed as Globodera rostochiensis) [GrCLE1-1m-12p, mutated GrCLE1-1 dodecapeptide with a G-to-A conversion at position 6] | significantly shorter | significantly shorter | – | – | –
6 | KRAVPAGPDPKHH (LRAVPAGPDPLHH; listed as Globodera rostochiensis) [GrCLE4-2-13p, 13 aa peptide with extra N-terminal lysine] | did not show activities on root suppression | did not show activities on root suppression | – | – | –
7 | RGAPAGPDP IHH (RGAPAGPDPIHH; listed as Globodera rostochiensis) [GrCLE4-3-12p, 12 aa Gr-CLE-4 related peptide] | suppressed root growth; also recorded: significantly shorter | suppressed root growth; also recorded: significantly shorter | – | – | –
8 | KRVAGAGPDPIHH (LRVAGAGPDPIHH; listed as Globodera rostochiensis) [GrCLE4-1-13p, 13 aa peptide with extra N-terminal lysine] | did not show activities on root suppression | did not show activities on root suppression | – | – | –
9 | B1 | – | – | – | – | short root phenotype
